Columns and labels:
[1] = biological target: T1, JAK3 (Homo sapiens, UniProt P52333); test: JAK3 inhibition assay (ELISA, Poly (Glu, Ala, Tyr) coated plates); assay type: biochemical; details: 2 mM ATP, 60 minutes at 30° C.
T1 sequence (P52333 1-1124): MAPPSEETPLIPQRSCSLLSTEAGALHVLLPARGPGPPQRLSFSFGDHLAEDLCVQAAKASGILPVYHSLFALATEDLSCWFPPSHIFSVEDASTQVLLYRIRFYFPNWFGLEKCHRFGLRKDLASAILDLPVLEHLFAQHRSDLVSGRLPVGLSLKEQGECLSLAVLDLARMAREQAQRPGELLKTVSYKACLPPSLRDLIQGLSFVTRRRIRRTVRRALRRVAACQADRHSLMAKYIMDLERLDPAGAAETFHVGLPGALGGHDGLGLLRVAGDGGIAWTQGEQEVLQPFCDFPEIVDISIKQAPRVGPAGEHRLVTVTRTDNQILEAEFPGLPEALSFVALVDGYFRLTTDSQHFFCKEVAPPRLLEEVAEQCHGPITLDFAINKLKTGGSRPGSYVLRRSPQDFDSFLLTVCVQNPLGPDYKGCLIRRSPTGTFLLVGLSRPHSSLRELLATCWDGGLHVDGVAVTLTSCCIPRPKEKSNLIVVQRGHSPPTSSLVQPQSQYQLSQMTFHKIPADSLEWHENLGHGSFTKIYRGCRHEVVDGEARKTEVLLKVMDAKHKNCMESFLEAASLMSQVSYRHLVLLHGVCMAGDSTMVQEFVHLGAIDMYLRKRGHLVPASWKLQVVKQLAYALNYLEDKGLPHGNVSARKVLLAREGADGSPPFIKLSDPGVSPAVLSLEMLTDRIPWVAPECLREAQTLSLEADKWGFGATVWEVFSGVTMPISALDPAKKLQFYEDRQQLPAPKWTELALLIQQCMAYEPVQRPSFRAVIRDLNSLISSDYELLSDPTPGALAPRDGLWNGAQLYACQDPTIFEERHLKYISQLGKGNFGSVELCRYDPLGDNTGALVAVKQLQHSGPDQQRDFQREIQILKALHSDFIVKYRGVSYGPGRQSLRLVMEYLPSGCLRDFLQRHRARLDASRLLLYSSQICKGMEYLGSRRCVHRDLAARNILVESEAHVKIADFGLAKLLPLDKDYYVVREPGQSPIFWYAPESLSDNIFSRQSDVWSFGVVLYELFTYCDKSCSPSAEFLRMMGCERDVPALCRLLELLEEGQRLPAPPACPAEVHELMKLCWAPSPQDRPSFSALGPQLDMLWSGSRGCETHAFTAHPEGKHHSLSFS
Method in brief: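 ELISA on Poly(Glu,Ala,Tyr) 6:3:1-coated plates with 2 mM ATP and 5 mM MgCl2. JAK enzyme started the reaction, run 60 min at 30° C. Phosphotyrosine was detected with HRP-conjugated 4G10 antibody and TMB, read at 450 nm, and IC50 was derived from optical densities.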

[2] = biological target: T2, c-KIT (Homo sapiens, UniProt P10721); test: Inhibition of c-KIT, radiometric filter-binding assay; assay type: biochemical; details: 700 μM ATP, 0.5 mg/mL pE4Y, room temperature
T2 construct: 0.02% BSA and 25 nM c-KIT
T2 sequence (P10721 26-976): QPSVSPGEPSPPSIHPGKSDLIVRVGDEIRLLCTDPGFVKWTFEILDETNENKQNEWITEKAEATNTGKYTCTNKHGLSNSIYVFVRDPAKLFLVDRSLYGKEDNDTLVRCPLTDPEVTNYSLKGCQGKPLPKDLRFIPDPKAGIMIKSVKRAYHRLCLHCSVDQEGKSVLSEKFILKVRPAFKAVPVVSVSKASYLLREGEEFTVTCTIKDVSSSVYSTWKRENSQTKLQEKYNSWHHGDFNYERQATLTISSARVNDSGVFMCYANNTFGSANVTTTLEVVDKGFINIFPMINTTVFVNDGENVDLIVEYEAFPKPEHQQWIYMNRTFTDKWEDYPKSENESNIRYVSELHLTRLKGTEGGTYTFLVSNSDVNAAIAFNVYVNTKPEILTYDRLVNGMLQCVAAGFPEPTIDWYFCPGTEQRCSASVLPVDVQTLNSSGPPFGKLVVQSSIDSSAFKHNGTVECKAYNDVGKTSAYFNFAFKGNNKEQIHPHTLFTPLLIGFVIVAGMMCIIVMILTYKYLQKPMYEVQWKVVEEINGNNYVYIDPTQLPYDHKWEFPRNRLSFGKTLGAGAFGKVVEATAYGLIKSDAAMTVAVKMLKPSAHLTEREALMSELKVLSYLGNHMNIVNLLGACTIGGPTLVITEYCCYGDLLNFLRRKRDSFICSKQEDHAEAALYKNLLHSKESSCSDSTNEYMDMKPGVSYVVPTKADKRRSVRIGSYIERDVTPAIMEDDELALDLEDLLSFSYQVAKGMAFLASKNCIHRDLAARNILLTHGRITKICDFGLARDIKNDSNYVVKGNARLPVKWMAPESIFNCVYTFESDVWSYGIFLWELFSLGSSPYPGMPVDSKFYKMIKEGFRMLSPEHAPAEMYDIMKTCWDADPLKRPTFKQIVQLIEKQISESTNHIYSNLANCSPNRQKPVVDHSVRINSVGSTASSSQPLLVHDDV
Method in brief: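 Radiometric filter-binding: 25 nM c-KIT (enzyme in the Solution 2 mix) with poly(Glu,Tyr) 4:1 substrate at 0.5 mg/mL and [γ-^33P]ATP at 700 μM (both final), in HEPES pH 7.5/MgCl2/NaCl/DTT/BSA with 2.5% DMSO. Incubated 20 min at room temperature, stopped with TCA, and ^33P incorporation counted on filters. 12-point titration, final compound typically 0.01-5 μM; IC50 or Ki from curve fit.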

Structure (SMILES)	Ki [1] [nM]	Ki [2] [nM]
Nc1ccnc(-c2cnc3[nH]cc(-c4oncc4-c4cccc(F)c4F)c3c2)c1 [Compound 83, 2-{3-[4-(2,3-Difluoro-phenyl)-isoxazol-5-yl]-1H-pyrrolo [2,3-b]pyridin-5-yl}-pyridin-4-ylamine]	< 200	< 200
CN(C)Cc1ccc(-c2cnc3[nH]cc(-c4oncc4-c4cccc(F)c4F)c3c2)nc1 [Compound 84, (6-{3-[4-(2,3-Difluoro-phenyl)-isoxazol-5-yl]-1H-pyrrolo[2,3-b]pyridin-5-yl}-pyridin-3-ylmethyl)-dimethyl-amine]	< 200	< 200
Fc1cccc(-c2cnoc2-c2c[nH]c3ncc(-c4cncnc4)cc23)c1F [Compound 85, 3-[4-(2,3-Difluoro-phenyl)-isoxazol-5-yl]-5-pyrimidin-5-yl-1H-pyrrolo[2,3-b]pyridine]	200 to 1000	< 200
Nc1cccc(-c2cnc3[nH]cc(-c4oncc4-c4cccc(F)c4F)c3c2)c1 [Compound 86, 3-{3-[4-(2,3-Difluoro-phenyl)-isoxazol-5-yl]-1H-pyrrolo [2,3-b]pyridin-5-yl}-phenylamine]	< 200	< 200
Oc1cccc(-c2cnc3[nH]cc(-c4oncc4-c4cccc(F)c4F)c3c2)c1 [Compound 87, 3-{3-[4-(2,3-Difluoro-phenyl)-isoxazol-5-yl]-1H-pyrrolo [2,3-b]pyridin-5-yl}-phenol]	< 200	< 200
CN(C)c1ccc(-c2cnc3[nH]cc(-c4oncc4-c4cccc(F)c4F)c3c2)cc1 [Compound 88, (4-{3-[4-(2,3-Difluoro-phenyl)-isoxazol-5-yl]-1H-pyrrolo[2,3-b]pyridin-5-yl}-phenyl)-dimethyl-amine]	< 200	< 200
Nc1ccc(-c2cnc3[nH]cc(-c4oncc4-c4cccc(F)c4F)c3c2)cc1 [Compound 90, 4-{3-[4-(2,3-Difluoro-phenyl)-isoxazol-5-yl]-1H-pyrrolo [2,3-b]pyridin-5-yl}-phenylamine]	< 200	< 200
CN(C)Cc1ccc(-c2cnc3[nH]cc(-c4oncc4-c4cccc(F)c4F)c3c2)cc1 [Compound 91, (4-{3-[4-(2,3-Difluoro-phenyl)-isoxazol-5-yl]-1H-pyrrolo[2,3-b]pyridin-5-yl}-benzyl)-dimethyl-amine]	< 200	< 200
Fc1cccc(-c2cnoc2-c2c[nH]c3ncc(-c4ccc(CN5CCOCC5)cc4)cc23)c1F [Compound 92, 3-[4-(2,3-Difluoro-phenyl)-isoxazol-5-yl]-5-(4-morpholin-4-ylmethyl-phenyl)-1H-pyrrolo[2,3-b]pyridine]	< 200	< 200
Fc1cccc(-c2cnoc2-c2c[nH]c3ncc(-c4ccc(CN5CCCC5)cc4)cc23)c1F [Compound 93, 3-[4-(2,3-Difluoro-phenyl)-isoxazol-5-yl]-5-(4-pyrrolidin-1-ylmethyl-phenyl)-1H-pyrrolo[2,3-b]pyridine]	< 200	< 200
CN1CCN(Cc2ccc(-c3cnc4[nH]cc(-c5oncc5-c5cccc(F)c5F)c4c3)cc2)CC1 [Compound 94, 3-[4-(2,3-Difluoro-phenyl)-isoxazol-5-yl]-5-[4-(4-methyl-piperazin-1-ylmethyl)-phenyl]-1H-pyrrolo[2,3-b]pyridine]	< 200	< 200
CC(=O)Nc1ccc(-c2cnc3[nH]cc(-c4oncc4-c4cccc(F)c4F)c3c2)cc1 [Compound 95, N-(4-{3-[4-(2,3-Difluoro-phenyl)-isoxazol-5-yl]-1H-pyrrolo[2,3-b]pyridin-5-yl}-phenyl)-acetamide]	< 200	< 200
COc1cncc(-c2cnc3[nH]cc(-c4oncc4-c4cccc(F)c4F)c3c2)c1 [Compound 96, 3-[4-(2,3-Difluoro-phenyl)-isoxazol-5-yl]-5-(5-methoxy-pyridin-3-yl)-1H-pyrrolo[2,3-b]pyridine]	< 200	< 200
Clc1cccc(-c2cnoc2-c2c[nH]c3ncc(-c4cccnc4)cc23)c1Cl [Compound 99, 3-[4-(2,3-Dichloro-phenyl)-isoxazol-5-yl]-5-pyridin-3-yl-1H-pyrrolo[2,3-b]pyridine]	< 200	< 200
COC(=O)c1cnc2[nH]cc(-c3oncc3-c3cccc(F)c3F)c2c1 [Compound 105, 3-[4-(2,3-Difluoro-phenyl)-isoxazol-5-yl]-1H-pyrrolo[2,3-b]pyridine-5-carboxylic acid methyl ester]	< 200	< 200
CN(C)c1ccc(-c2cnc3[nH]cc(-c4nncn4-c4cccc(F)c4F)c3c2)cc1 [Compound 106, (4-{3-[4-(2,3-Difluoro-phenyl)-4H-[1,2,4]triazol-3-yl]-1H-pyrrolo[2,3-b]pyridin-5-yl}-phenyl)-dimethyl-amine]	200 to 1000	< 200
Fc1cccc(-n2cnnc2-c2c[nH]c3ncc(-c4ccc(CN5CCOCC5)cc4)cc23)c1F [Compound 109, 3-[4-(2,3-Difluoro-phenyl)-4H-[1,2,4]triazol-3-yl]-5-(4-morpholin-4-ylmethyl-phenyl)-1H-pyrrolo[2,3-b]pyridine]	200 to 1000	< 200
CN1CCN(c2ccc(-c3cnc4[nH]cc(-c5nncn5-c5cccc(F)c5F)c4c3)cc2)CC1 [Compound 110, 3-[4-(2,3-Difluoro-phenyl)-4H-[1,2,4]triazol-3-yl]-5-[4-(4-methyl-piperazin-1-yl)-phenyl]-1H-pyrrolo[2,3-b]pyridine]	200 to 1000	< 200
CN1CCN(c2ccc(-c3cnc4[nH]cc(-c5nncn5-c5cccc(F)c5F)c4c3)cn2)CC1 [Compound 112]	1000 to 12500	200 to 1000
Fc1cccc(-n2cnnc2-c2c[nH]c3ncc(-c4cccnc4)cc23)c1F [Compound 113, 3-[4-(2,3-Difluoro-phenyl)-4H-[1,2,4]triazol-3-yl]-5-pyridin-3-yl-1H-pyrrolo[2,3-b]pyridine]	1000 to 12500	200 to 1000
Fc1cccc(-n2cnnc2-c2c[nH]c3ncc(-c4ccncc4)cc23)c1F [Compound 114, 3-[4-(2,3-Difluoro-phenyl)-4H-[1,2,4]triazol-3-yl]-5-pyridin-4-yl-1H-pyrrolo[2,3-b]pyridine]	1000 to 12500	< 200
Fc1cccc(-n2cnnc2-c2c[nH]c3ncc(-c4ccc(N5CCC[C@H]5CN5CCCC5)nc4)cc23)c1F [Compound 115, 3-[4-(2,3-Difluoro-phenyl)-4H-[1,2,4]triazol-3-yl]-5-[6-(2-pyrrolidin-1-ylmethyl-pyrrolidin-1-yl)-pyridin-3-yl]-1H-pyrrolo[2,3-b]pyridine]	1000 to 12500	200 to 1000
OC1CCN(c2ccc(-c3cnc4[nH]cc(-c5nncn5-c5cccc(F)c5F)c4c3)cn2)CC1 [Compound 116, 5′-{3-[4-(2,3-Difluoro-phenyl)-4H-[1,2,4]triazol-3-yl]-1H-pyrrolo[2,3-b]pyridin-5-yl}-3,4,5,6-tetrahydro-2H-[1,2′]bi-pyridinyl-4-ol]	200 to 1000	200 to 1000
CN1CCCN(c2ccc(-c3cnc4[nH]cc(-c5nncn5-c5cccc(F)c5F)c4c3)cn2)CC1 [Compound 117, 3-[4-(2,3-Difluoro-phenyl)-4H-[1,2,4]triazol-3-yl]-5-[6-(4-methyl-[1,4]diazepan-1-yl)-pyridin-3-yl]-1H-pyrrolo [2,3-b]-pyridine]	1000 to 12500	200 to 1000
Fc1cccc(-n2cnnc2-c2c[nH]c3ncc(-c4ccc(N5CCCC5)nc4)cc23)c1F [Compound 118, 3-[4-(2,3-Difluoro-phenyl)-4H-[1,2,4]triazol-3-yl]-5-(6-pyrrolidin-1-yl-pyridin-3-yl)-1H-pyrrolo[2,3-b]pyridine]	200 to 1000	200 to 1000

Reference: patent publication US7446199B2, “Compositions useful as inhibitors of protein kinases” (Vertex Pharmaceuticals Incorporated, priority 2003, dated 2008)
